Laboratory results published in US4405743A, “Pyrazolylpyrimidine derivatives” (Hokko Chemical Industry Co., Ltd., priority 1981, dated 1983).
Values after ≈ are worked out from the molar mass of the structure shown. Where two headings read alike, the source gives them in different places.

Legend:
Pyricularia oryzae [1] = assay type: in vivo, Pyricularia oryzae on rice plant (variety: Asahi); settings: rice blast, prevention; 200 ppm; 5 days after inoculation
rice plant [2] = settings: blast prevention test, 200 ppm
Cochliobolus miyabeanus [3] = assay: Antimicrobial activity (mycelium growth inhibition, PDA medium); assay type: cell-based; settings: Bipolaris oryzae, read-out: ED50 value
Cochliobolus miyabeanus [4] = assay: Effect of controlling rice brown spot, Experimental Example 3; assay type: in vivo, Cochliobolus miyabeanus on rice plant (variety: Asahi); settings: sprayed liquid 500 ppm, 5 days after inoculation
Pyricularia oryzae [5] = assay: microbe, parasite or virus in culture; assay type: cell-based; settings: read-out: ED50 value
Sphaerotheca friliginea = assay: Effect of controlling cucumber powdery mildew, Experimental Example 4; assay type: in vivo; settings: sprayed liquid 200 ppm, 10 days after inoculation
Method: 10 ml of each of test liquids diluted to a predetermined concentration was sprayed over seedlings of a cucumber plant (variety: Sagami Hanpaku) grown up to the first leaf stage which has been soil cultured in an unglazed pot with a diameter of 9 cm in a green house. After allowing to stand overnight, the seedlings were sprayed for inoculation with a spore suspension of Sphaerotheca friliginea. Ten days after the inoculation, the rate of a lesion area (%) was checked and a control value was evaluated from the following equation. The degree of chemical injury against a cucumber plant was determined in the same manner as in Experimental Example.

Endothia parasitica = assay: Antimicrobial activity (mycelium growth inhibition, PDA medium); assay type: cell-based; settings: Cryphonectria parasitica, 24° C., read-out: ED50 value
Method: (§1) Experimental Example 5 (Test for Antimicrobial Activity Against Various Plant Phathogenic Fungi)
(§2) 1 ml of an acetone solution of each of test compounds and 20 ml of the PDA medium (50° C.) to prepare media containing the chemical in different concentrations, followed by charging into a petri dish with a diameter of 9 cm where it was solidified flat. On the central portion of the chemical-containing medium was inoculated a fungus-containing medium a piece of ager black-containing mycelia which was obtained by punching by means of a cork borer the tip portion of mycelia of each test fungus which had been cultured in advance in the PDA medium, followed by cultivating at 24° C. Two to six days after the cultivation, the diameter of the mycelia was measured and mycelium growth inhibiting rate was calculated from a comparison with that of a non-treated plot. The mycelium growth inhibiting rate was plotted on a logarithmic probability paper to determine an ED50 value.

Diaporthe citri = assay: as above; assay type: cell-based; settings: 24° C., read-out: ED50 value
Method: as §1, §2

Mycosphaerella melonis = assay: as above; assay type: cell-based; settings: 24° C., read-out: ED50 value
Method: as §1, §2

Phizoctonia solani = assay: as above; assay type: cell-based; settings: 24° C., read-out: ED50 value
Method: as §1, §2

Botrytis cinerea = assay: as above; assay type: cell-based; settings: 24° C., read-out: ED50 value
Method: as §1, §2

Curvularia sp. = assay: as above; assay type: cell-based; settings: 24° C., read-out: ED50 value
Method: as §1, §2

Alternaria padwikii = assay: as above; assay type: cell-based; settings: 24° C., read-out: ED50 value
Method: as §1, §2

Fusarium nivale = assay: as above; assay type: cell-based; settings: Microdochium nivale, 24° C., read-out: ED50 value
Method: as §1, §2

Glomerella cingulata = assay: as above; assay type: cell-based; settings: Colletotrichum gloeosporioides, 24° C., read-out: ED50 value
Method: as §1, §2

Pellicularia sasakii = assay: as above; assay type: cell-based; settings: 24° C., read-out: ED50 value
Method: as §1, §2

Phoma lingam = assay: as above; assay type: cell-based; settings: Plenodomus lingam, 24° C., read-out: ED50 value
Method: as §1, §2

Penicillium digitatum = assay: as above; assay type: cell-based; settings: 24° C., read-out: ED50 value
Method: as §1, §2

[6] = test system: Helminthosporium gramineum; assay: as above; assay type: cell-based; settings: 24° C., read-out: ED50 value
Method: as §1, §2

Sclerotinia sclerotiorum = assay: as above; assay type: cell-based; settings: 24° C., read-out: ED50 value
Method: as §1, §2

Sclerotinia fructigena = assay: as above; assay type: cell-based; settings: 24° C., read-out: ED50 value
Method: as §1, §2

cucumber plant = settings: in vivo
Pyricularia oryzae [7] = assay type: in vivo, Pyricularia oryzae on rice plant (variety: Asahi); settings: rice blast, curative treatment; sprayed liquid 200 ppm; 5 days after spraying
rice plant [8] = settings: blast curative test, 200 ppm
rice plant [9] = settings: in vivo

Row | Structure (SMILES) | Control Value (Pyricularia oryzae [1]) [%] | Degree of chemical injury (rice plant [2]) | IC50 (Cochliobolus miyabeanus [3]) [mg/L] | Control Value (Cochliobolus miyabeanus [4]) [%] | IC50 (Pyricularia oryzae [5]) [mg/L] | Control Value (Sphaerotheca friliginea) [%] | IC50 (Endothia parasitica) [mg/L] | IC50 (Diaporthe citri) [mg/L] | IC50 (Mycosphaerella melonis) [mg/L] | IC50 (Phizoctonia solani) [mg/L] | IC50 (Botrytis cinerea) [mg/L] | IC50 (Curvularia sp.) [mg/L] | IC50 (Alternaria padwikii) [mg/L] | IC50 (Fusarium nivale) [mg/L] | IC50 (Glomerella cingulata) [mg/L] | IC50 (Pellicularia sasakii) [mg/L] | Degree of chemical injury (cucumber plant) | Control Value (Pyricularia oryzae [7]) [%] | Degree of chemical injury (rice plant [8]) | Degree of chemical injury (rice plant [9]) | also measured
1 | Cc1cc(C)n(-c2nccc(Sc3ccccc3)n2)n1 [Compound 4] | 100 | 0 | 4.6 (≈ 16.3 µM) | 85 | 0.1 (≈ 0.354 µM) | 90 | 1.9 (≈ 6.73 µM) | 2.7 (≈ 9.56 µM) | 5.2 (≈ 18.4 µM) | 1.1 (≈ 3.9 µM) | 6.5 (≈ 23 µM) | 0.7 (≈ 2.48 µM) | 1.2 (≈ 4.25 µM) | 5.3 (≈ 18.8 µM) | 4.1 (≈ 14.5 µM) | 1.2 (≈ 4.25 µM) | 0 | 100 | 0 | 0 | IC50 (Phoma lingam): 2.1 mg/L (≈ 7.44 µM); IC50 (Penicillium digitatum): 1.3 mg/L (≈ 4.6 µM); IC50 [6]: 2.4 mg/L (≈ 8.5 µM); IC50 (Sclerotinia sclerotiorum): 3.2 mg/L (≈ 11.3 µM); IC50 (Sclerotinia fructigena): 0.4 mg/L (≈ 1.42 µM)
2 | Cc1ccc(Oc2cc(C)nc(-n3nc(C)cc3C)n2)c(C)c1 [Compound 27] | 100 | 0 | 2.2 (≈ 7.13 µM) | – | 0.02 (≈ 0.0649 µM) | – | 6.3 (≈ 20.4 µM) | 2.9 (≈ 9.4 µM) | 4.6 (≈ 14.9 µM) | 1.1 (≈ 3.57 µM) | 9.8 (≈ 31.8 µM) | 1.6 (≈ 5.19 µM) | 1.9 (≈ 6.16 µM) | 2.8 (≈ 9.08 µM) | 6.7 (≈ 21.7 µM) | 1 (≈ 3.24 µM) | – | 100 | 0 | – | IC50 (Phoma lingam): 3.7 mg/L (≈ 12 µM); IC50 (Penicillium digitatum): 1.2 mg/L (≈ 3.89 µM); IC50 [6]: 3.6 mg/L (≈ 11.7 µM); IC50 (Sclerotinia sclerotiorum): 4.8 mg/L (≈ 15.6 µM); IC50 (Sclerotinia fructigena): 1.4 mg/L (≈ 4.54 µM)
3 | CCOc1nc(-n2nc(C)cc2C)ncc1C [Compound 32] | 100 | 0 | 3.8 (≈ 16.4 µM) | 76 | 0.8 (≈ 3.44 µM) | 93 | 7.5 (≈ 32.3 µM) | 4 (≈ 17.2 µM) | 1.8 (≈ 7.75 µM) | 2.4 (≈ 10.3 µM) | 13.8 (≈ 59.4 µM) | 1.6 (≈ 6.89 µM) | 1.2 (≈ 5.17 µM) | 2.3 (≈ 9.9 µM) | 7 (≈ 30.1 µM) | 1.5 (≈ 6.46 µM) | 0 | 93 | 0 | 0 | IC50 (Phoma lingam): 5.3 mg/L (≈ 22.8 µM); IC50 (Penicillium digitatum): 0.6 mg/L (≈ 2.58 µM); IC50 [6]: 7.5 mg/L (≈ 32.3 µM); IC50 (Sclerotinia sclerotiorum): 5.5 mg/L (≈ 23.7 µM); IC50 (Sclerotinia fructigena): 0.9 mg/L (≈ 3.87 µM)
4 | Cc1cc(C)n(-c2ncc(C)c(Sc3ccccc3)n2)n1 [Compound 35] | 84 | 0 | 4.3 (≈ 14.5 µM) | 92 | 0.2 (≈ 0.675 µM) | 100 | 6.8 (≈ 22.9 µM) | 4.6 (≈ 15.5 µM) | 2 (≈ 6.75 µM) | 2.8 (≈ 9.45 µM) | 9.6 (≈ 32.4 µM) | 1.8 (≈ 6.07 µM) | 1 (≈ 3.37 µM) | 2.6 (≈ 8.77 µM) | 9.6 (≈ 32.4 µM) | 1.3 (≈ 4.39 µM) | 0 | 95 | 0 | 0 | IC50 (Phoma lingam): 4.6 mg/L (≈ 15.5 µM); IC50 (Penicillium digitatum): 0.8 mg/L (≈ 2.7 µM); IC50 [6]: 6.3 mg/L (≈ 21.3 µM); IC50 (Sclerotinia sclerotiorum): 6.1 mg/L (≈ 20.6 µM); IC50 (Sclerotinia fructigena): 0.7 mg/L (≈ 2.36 µM)
5 | CCOc1nc(-n2nc(C)cc2C)nc(C)c1C [Compound 36] | 100 | 0 | – | 100 | – | 93 | – | – | – | – | – | – | – | – | – | – | 0 | 99 | 9 | 0 | –
6 | CCSc1nc(-n2nc(C)cc2C)nc(C)c1C [Compound 37] | 100 | 0 | – | 93 | – | 100 | – | – | – | – | – | – | – | – | – | – | 0 | 81 | 0 | 0 | –
7 | Cc1cc(C)n(-c2nc(C)c(C)c(Oc3ccccc3)n2)n1 [Compound 38] | 100 | 0 | 2.8 (≈ 9.51 µM) | 87 | 0.04 (≈ 0.136 µM) | 100 | 6.2 (≈ 21.1 µM) | 3.8 (≈ 12.9 µM) | 4 (≈ 13.6 µM) | 2 (≈ 6.79 µM) | 8.8 (≈ 29.9 µM) | 1.5 (≈ 5.1 µM) | 1.7 (≈ 5.78 µM) | 2.7 (≈ 9.17 µM) | 7.3 (≈ 24.8 µM) | 1.2 (≈ 4.08 µM) | 0 | 100 | 0 | 0 | IC50 (Phoma lingam): 2.7 mg/L (≈ 9.17 µM); IC50 (Penicillium digitatum): 1.4 mg/L (≈ 4.76 µM); IC50 [6]: 3.2 mg/L (≈ 10.9 µM); IC50 (Sclerotinia sclerotiorum): 3.6 mg/L (≈ 12.2 µM); IC50 (Sclerotinia fructigena): 1.6 mg/L (≈ 5.44 µM)
